Experimental data: ChEMBL document CHEMBL3352476, “Antimicrobial Constituents of the Mature Carpels of Manglietiastrum sinicum” (J Nat Prod, 2014)
pIC50: −log10 of the molar value. In brackets after ≈: the same amount, converted by molar mass. Counter-ions that a name gives are not always drawn. Activity calls are given as the source filed them. The calls are words filed in the database; no cut-off is given here.

Legend:
[1] = tested on: Staphylococcus aureus; assay: Antimicrobial activity against methicillin-resistant Staphylococcus aureus 92 by 2-fold dilution assay; assay type: functional
[2] = tested on: Staphylococcus aureus; assay: Antimicrobial activity against methicillin-resistant Staphylococcus aureus 98 by 2-fold dilution assay; assay type: functional
[3] = tested on: Staphylococcus aureus; assay: Antimicrobial activity against methicillin-resistant Staphylococcus aureus 331 by 2-fold dilution assay; assay type: functional
[4] = tested on: Staphylococcus aureus; assay: Antimicrobial activity against methicillin-resistant Staphylococcus aureus 82 by 2-fold dilution assay; assay type: functional
[5] = tested on: Staphylococcus aureus; assay: Antimicrobial activity against Staphylococcus aureus by 2-fold dilution assay; assay type: functional
[6] = Cytotoxicity against human SSMC-7721 cells by MTT assay; assay type: functional, cell-based
[7] = Cytotoxicity against human HL60 cells by MTT assay; assay type: functional, cell-based; settings: HL-60
[8] = tested on: SW480; assay: Cytotoxicity against human SW480 cells by MTT assay; assay type: functional, cell-based
[9] = tested on: Platelet; assay: Inhibition of arachidonic acid-induced platelet aggregation in rabbit platelet rich plasma at 200 ug/ml preincubated for 10 mins before addition of inducer by aggregometry; assay type: functional; settings: Oryctolagus cuniculus
[10] = tested on: Platelet; assay: Inhibition of ADP-induced platelet aggregation in rabbit platelet rich plasma at 200 ug/ml preincubated for 10 mins before addition of inducer by aggregometry; assay type: functional; settings: Oryctolagus cuniculus
[11] = tested on: A549; assay: Cytotoxicity against human A549 cells by MTT assay; assay type: functional, cell-based
[12] = tested on: MCF7; assay: Cytotoxicity against human MCF7 cells by MTT assay; assay type: functional, cell-based
[13] = tested on: Platelet; assay: Inhibition of PAF-induced platelet aggregation in rabbit platelet rich plasma at 200 ug/ml preincubated for 10 mins before addition of inducer by aggregometry; assay type: functional; settings: Oryctolagus cuniculus
[14] = tested on: Staphylococcus aureus; assay: Antimicrobial activity against Staphylococcus aureus by agar plate punch assay; assay type: functional

SMILES | MIC [1] | MIC [2] | MIC [3] | MIC [4] | MIC [5] | pIC50 [6] | pIC50 [7] | pIC50 [8] | inhibition [9] | inhibition [10] | pIC50 [11] | pIC50 [12] | inhibition [13] | diameter of the inhibition zone (DIZ) [14]
CN[C@H](CC(C)C)C(=O)N[C@H]1C(=O)N[C@@H](CC(N)=O)C(=O)N[C@H]2C(=O)N[C@H]3C(=O)N[C@H](C(=O)N[C@H](C(=O)O)c4cc(O)cc(O)c4-c4cc3ccc4O)[C@H](O)c3ccc(c(Cl)c3)Oc3cc2cc(c3O[C@@H]2O[C@H](CO)[C@@H](O)[C@H](O)[C@H]2O[C@H]2C[C@](C)(N)[C@H](O)[C@H](C)O2)Oc2ccc(cc2Cl)[C@H]1O [VANCOMYCIN HYDROCHLORIDE] | 0.54 µM | 0.54 µM | 0.54 µM | 0.54 µM | 1.1 µM | – | – | – | – | – | – | – | – | –
COc1cc([C@@H]2O[C@H](c3ccc4c(c3)OCO4)[C@H](C)[C@H]2C)cc(O)c1OC | 67 µM (≈ 25 µg/mL) | 67 µM (≈ 25 µg/mL) | 34 µM (≈ 12.7 µg/mL) | 67 µM (≈ 25 µg/mL) | 67 µM (≈ 25 µg/mL) | < 4.40 | < 4.40 | < 4.40 | inactive | inactive | < 4.40 | < 4.40 | inactive | –
COC1=CC2(C=C(OC)C1=O)C[C@@H](C)[C@H](C)Cc1cc3c(c(OC)c12)OCO3 | 65 µM (≈ 25.1 µg/mL) | 16 µM (≈ 6.18 µg/mL) | 32 µM (≈ 12.4 µg/mL) | 65 µM (≈ 25.1 µg/mL) | 130 µM (≈ 50.2 µg/mL) | < 4.40 | < 4.40 | < 4.40 | inactive | inactive | < 4.40 | < 4.40 | inactive | –
COc1cc([C@H]2O[C@@H](c3ccc4c(c3)OCO4)[C@H](C)[C@@H]2C)cc(O)c1OC | 67 µM (≈ 25 µg/mL) | 34 µM (≈ 12.7 µg/mL) | 130 µM (≈ 48.4 µg/mL) | 67 µM (≈ 25 µg/mL) | 67 µM (≈ 25 µg/mL) | < 4.40 | 4.40 | 4.72 | inactive | inactive | 4.56 | 4.85 | inactive | –
COc1cc([C@@H]2O[C@H](c3cc(O)c(OC)c(OC)c3)[C@@H](C)[C@@H]2C)ccc1O | 130 µM (≈ 48.7 µg/mL) | 130 µM (≈ 48.7 µg/mL) | 130 µM (≈ 48.7 µg/mL) | 67 µM (≈ 25.1 µg/mL) | 130 µM (≈ 48.7 µg/mL) | < 4.40 | < 4.40 | < 4.40 | inactive | inactive | < 4.40 | < 4.40 | inactive | –
COc1cc(C(=O)O[C@@H](c2cc(O)c(OC)c(OC)c2)[C@H](C)C(C)=O)cc(O)c1OC | – | – | – | – | – | < 4.40 | < 4.40 | < 4.40 | inactive | inactive | < 4.40 | < 4.40 | inactive | <10 mm
COc1cc2c(cc1O)[C@@H]1O[C@H](c3cc4c(c(OC)c3-2)OCO4)[C@H](C)[C@@H]1C | 68 µM (≈ 25.2 µg/mL) | 34 µM (≈ 12.6 µg/mL) | 140 µM (≈ 51.9 µg/mL) | 140 µM (≈ 51.9 µg/mL) | 68 µM (≈ 25.2 µg/mL) | 4.42 | 4.77 | < 4.40 | inactive | inactive | < 4.40 | < 4.40 | inactive | –
COc1cc(C(=O)O[C@@H](c2cc(OC)c(OC)c(OC)c2)[C@H](C)C(C)=O)ccc1O | – | – | – | – | – | < 4.40 | < 4.40 | < 4.40 | inactive | inactive | < 4.40 | < 4.40 | inactive | <10 mm
